Columns and labels:
[1] = Stability in mouse plasma, peptides 100 uM (Example 14); assay type: in vitro ADME; details: mouse plasma 37° C., peptide 100 uM; for remaining at 0.25 h, 100 uM / remaining at 0.5 h, 100 uM / remaining at 1 h, 100 uM / remaining at 2 h, 100 uM / remaining at 3 h, 100 uM: pooled mouse plasma; for remaining at 0.25 h, 100 uM: 15 min, read-out: % Remaining at Each Time Point: 15 min; for remaining at 0.5 h, 100 uM: 30 min, read-out: % Remaining at Each Time Point: 30 min; for remaining at 1 h, 100 uM: 60 min, read-out: % Remaining at Each Time Point: 60 min; for remaining at 2 h, 100 uM: 120 min, read-out: % Remaining at Each Time Point: 120 min; for remaining at 3 h, 100 uM: 180 min, read-out: % Remaining at Each Time Point: 180 min
Protocol: Peptides (100 uM) were incubated in pooled mouse plasma at 37° C. and samples were removed and immediately analyzed for the concentration of intact peptide by LC/MS/MS over the course of 3 hours. The percent of peptide remaining in plasma at each time point was calculated relative to the initial peak area (Table 12).

Human Primary Adipocytes = test: Free fatty acid levels in cultured human primary adipocytes, isoproterenol stimulated (Example 4); assay type: cell-based; details: isoproterenol 1 nM; for Free Fatty Acid Levels in Human Primary Adipocytes Expressed as a Percent of Isoproterenol Control: Percent of Control Value: test peptides 25 μM
Protocol: Human primary adipocytes were seeded at 5,000-100,000 cells per well on 96-well, 48-well, or 24-well plates in Pre-adipocyte Medium (Zen-Bio, Durham, N.C.) and grown to confluence at 37° C. in a humidified atmosphere of 5% CO2/95% air. Two days after confluence, cells were placed in Adipocyte Differentiation Medium (Zen-Bio, Durham, N.C.) and cultured for three additional days at 37° C. in a humidified atmosphere of 5% CO2/95% air. The culture media was then replaced with Adipocyte Maintenance Medium (Zen-Bio) and the cells were maintained for an additional 11-21 days at 37° C. in a humidified atmosphere of 5% CO2/95% air with partial medium replacement every other day. Following 14-24 days of differentiation, test peptides were added at a final concentration of 25 μM and incubated for 18-20 hours in Adipocyte Maintenance Medium at 37° C. in a humidified atmosphere of 5% CO2/95%. After 18-20 hours, the media was exchanged with fresh Adipocyte Maintenance Medium containing test peptides and incubated for 1 h at 37° C. in a humidified atmosphere of 5% CO2/95%. After 1 h media was exchanged with Assay Buffer (Zen-Bio) containing isoproterenol (1 nM) (added to all samples except untreated controls) and test peptides. Cells were incubated for a further 3 hours at 37° C. in a humidified atmosphere of 5% CO2/95%. Free fatty acid concentrations in the media were determined using a Free Fatty Acid Assay Kit (Zen-Bio) according to the manufacturer's instructions using a plate reader (540 nm). Absorbance values were corrected for untreated background and expressed relative to isoproterenol treated cells. Treatment with isoproterenol (1 nM) alone was used as the free fatty acid level stimulatory control. The relative standard deviation of the isoproterenol control was <14%. […] Free fatty acid levels for insulin (100 nM) treatment were <5% of the isoproterenol control value.

[2] = test system: Diet Induced Obese (DIO) mice; test: Body weight, blood glucose and fat mass in Diet Induced Obese mice, 10 days (Example 6); assay type: in vivo, Male C57BL/6 mice; details: male DIO mice; 10 days twice daily intraperitoneal 15 mg/kg; N = 8; mean
In short: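 Male DIO mice (n=8/group), randomized by blood glucose and body weight, dosed 15 mg/kg/dose once or twice daily s.c. or i.p. for 10 days vs vehicle. Body weight, blood glucose and food intake monitored; fat vs lean mass by quantitative whole-body NMR before and after dosing.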

3T3-L1 Adipocytes = test: Free fatty acid levels in cultured mouse 3T3-L1 adipocytes, forskolin stimulated (Example 3); assay type: cell-based; details: forskolin 1 μM; for Free Fatty Acid Levels in 3T3-L1 Adipocytes Expressed as a Percent of Forskolin Control: Percent of Control Value: test peptides 25 μM
In short: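 Mouse 3T3-L1 cells differentiated 12–17 days, then exposed to test peptides (25 μM) for 18–20 h, fresh peptide 1 h, then 3 h with 1 μM forskolin. Free fatty acids in medium read colorimetrically at 540 nm. Values background-corrected and expressed relative to forskolin-only cells.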

| Substance | % Remaining at Each Time Point: 0 min [1] [%] | remaining at 0.25 h, 100 uM [1] [%] | remaining at 0.5 h, 100 uM [1] [%] | remaining at 1 h, 100 uM [1] [%] | remaining at 2 h, 100 uM [1] [%] | remaining at 3 h, 100 uM [1] [%] | Free Fatty Acid Levels in Human Primary Adipocytes Expressed as a Percent of Isoproterenol Control: Percent of Control Value (Human Primary Adipocytes) [%] | Difference from Vehicle Control: Decrease from Baseline in Blood Glucose [2] [mg/dL] | Difference from Vehicle Control: Decrease from Baseline in Body Weight (%) [2] [%] | Difference from Vehicle Control: Decrease from Baseline in Fat Mass [2] [g] | Free Fatty Acid Levels in 3T3-L1 Adipocytes Expressed as a Percent of Forskolin Control: Percent of Control Value (3T3-L1 Adipocytes) [%] | Free fatty acid levels, % of the isoproterenol control value (Human Primary Adipocytes; insulin 100 nM, human primary adipocytes) [%] | Free fatty acid levels, % of the forskolin control value (3T3-L1 Adipocytes; insulin 100 nM, 3T3-L1 adipocytes) [%] |
| --- | --- | --- | --- | --- | --- | --- | --- | --- | --- | --- | --- | --- | --- |
| H-MRWQEMGYIFYPRKLA-OH [compound 21] | 100 | 29.9 | 31 | 21.5 | 6.41 | 2.13 | 88.9 | -4.21 | −3.00 | -2.03 | 56.0 |  |  |
| H-MRWQEMGYIFYPRKLR-OH [compound 2] | 100 | 32 | 14.8 | 7.58 | 4.78 | 1.21 | 107 | -4.88 | −0.58 | -0.24 | 59.2 |  |  |
| H-MRWQEMGYIFYPRNLR-OH [compound 213] | 100 | 41 | 29.4 | 20.5 | 10 | 7.45 | 103 | -20.1 | −4.21 | -1.16 | 36.0 |  |  |
| H-MRWQEMNYIFYPR-OH [compound 208] | 100 | 63.3 | 53.1 | 48.9 | 45.3 | 47.7 | 70.9 | -11.5 | −5.05 | -1.87 | 62.4 |  |  |
| H-MRWQEMQYIFYPRALR-OH [compound 219] | 100 | 44.5 | 40.9 | 41.3 | 19.8 | 12.2 | 69.4 | -17.3 | −4.09 | -1.37 | 41.5 |  |  |
| H-RWQEMNYIFYPR-OH [compound 210] | 100 | 56.2 | 44.8 | 39.6 | 34.4 | 41.4 | 75.5 | 8.25 | −3.70 | -1.45 | 29.2 |  |  |
| H-RWQEMQYIFYPR-OH [compound 211] |  |  |  |  |  |  | 79.9 | -2.25 | −1.04 | -0.43 | 33.7 |  |  |
| Insulin [reference compound] |  |  |  |  |  |  |  |  |  |  |  | < 5 | < 9 |

From patent US11753445B2, “Therapeutic peptides” (COHBAR, INC., priority 2016, dated 2023)
